From paper PMC5789083, “Mechanisms driving the antibacterial and antibiofilm properties of Hp1404 and its analogue peptides against multidrug-resistant Pseudomonas aeruginosa” (Scientific Reports, 2018)
Read-outs that look alike come from different tables or passages of the source. Where no end group is shown, it is not given here.

Tests used:
[1] = system: Pseudomonas aeruginosa and MRPA strains; assay: microbe, parasite or virus in culture; assay type: cell-based; conditions: broth micro-dilution, 37 °C, 18–24 h
From the text: Gram-negative (Pseudomonas aeruginosa ATCC 27853) bacterial strains were obtained from the ATCC (American Type Culture Collection; Manassas, VA, USA). Multidrug-resistant strains (Pseudomonas aeruginosa 138, 431, 434, 557, 559, 778, 1034, 1162, 3290, 3399, 3592, 3904, 4007, 4319, 4891, 5018, and 671973) were obtained from the Chonnam National University Hospital (Gwangju, South Korea).
(§1) We examined the activity of each peptide against both pseudomonas aeruginosa and multidrug-resistant strains. The minimal inhibitory concentrations (MICs) of peptides were determined using the broth micro-dilution assay as described previously. Briefly, bacterial strains were cultivated with shaking overnight at 37 °C. The next day, they were diluted to a density of 2 × 10^5 CFU/mL with growth medium. Peptides were serially diluted with 10 mM sodium phosphate buffer. 50 µL bacterial aliquots were mixed with an equal volume of peptide solution, and incubated at 37 °C for 18–24 h. Inhibition of bacterial growth was determined by measuring the absorbance at 600 nm using a Versa Max microplate reader (Molecular Devices, Sunnyvale, CA, USA). The test was performed in triplicate.

[2] = system: HaCaT cells; assay: Cytotoxicity, MTT assay; assay type: cell-based, human; conditions: 50 µM, 24 h
Experimental: We used the MTT assay to evaluate the toxicity of the peptides toward human skin epithelial cells (HaCaT) as previously described. Briefly, HaCaT cells were seeded at a density of 2 × 10^4 cells per well in 96-well microtiter plates in Dulbecco’s modified Eagle’s medium (DMEM) containing 10% foetal bovine serum (FBS) at 37 °C under 5% CO2 atmosphere. The next day, peptides were added to each well at various final concentrations (higher concentration of 200 µM). After 24 h incubation, culture supernatants were removed. 0.5 mg/mL MTT was added to each well, and the plates were incubated for 4 h at 37 °C. The medium was replaced by dimethyl sulfoxide (DMSO) to dissolve the formazan crystals formed in the wells. The absorbance at 570 nm was measured using a Versa-Max microplate ELISA reader (Molecular Devices). The viability rate was calculated using the following formula: Cell viability (%) = (absorbance of treated sample)/(absorbance of control) × 100.

[3] = system: P. aeruginosa 27853; assay type: cell-based, Pseudomonas aeruginosa
Experimental: as §1
The effects of various cations on the antibacterial activities of the parental and analogue peptides against P. aeruginosa 27853 were evaluated as previously described. Bacteria was treated with peptides at a final concentration 25 µM in the presence of physiological salts such as NaCl (50 mM, 100 mM, and 150 mM), CaCl2 (1.25 mM, 2.5 mM, and 5 mM), or MgCl2 (0.5 mM, 1 mM, and 2 mM). The MIC values were determined as described above.

[4] = system: P. aeruginosa strains (biofilm formation); assay type: cell-based, Pseudomonas aeruginosa; conditions: 24 h, 37 °C, crystal violet OD595
Experimental: To evaluate the ability of bacterial strains to form biofilms either in the absence or presence of peptides, antibiotic-susceptible P. aeruginosa (ATCC 27853), and various strains of MDR P. aeruginosa were cultured in nutrient broth (NB). […]. The biofilms were fixed with 100% methanol for 15 min, stained with 0.1% crystal violet (CV) for 1 h, and rinsed three times with distilled water (dH2O). After the addition of 95% ethanol, biofilm mass was quantified by measuring OD at 595 nm using a Versa-Max microplate ELISA reader (Molecular Devices). Results were expressed as the percentage of biofilm formed with respect to the control. […] All experiments were performed at least in triplicate.

[5] = P. aeruginosa 138 (multidrug-resistant), triplicate
[6] = P. aeruginosa 431 (multidrug-resistant), triplicate
[7] = P. aeruginosa 434 (multidrug-resistant), triplicate
[8] = P. aeruginosa 557 (multidrug-resistant), triplicate
[9] = P. aeruginosa 559 (multidrug-resistant), triplicate
[10] = P. aeruginosa 778 (multidrug-resistant), triplicate
[11] = P. aeruginosa 1034 (multidrug-resistant), triplicate
[12] = P. aeruginosa 1162 (multidrug-resistant), triplicate
[13] = P. aeruginosa 3290 (multidrug-resistant), triplicate
[14] = P. aeruginosa 3399 (multidrug-resistant), triplicate
[15] = P. aeruginosa 3543 (multidrug-resistant), triplicate
[16] = P. aeruginosa 3592 (multidrug-resistant), triplicate
[17] = P. aeruginosa 3904 (multidrug-resistant), triplicate
[18] = P. aeruginosa 4007 (multidrug-resistant), triplicate
[19] = P. aeruginosa 4319 (multidrug-resistant), triplicate
[20] = P. aeruginosa 4891 (multidrug-resistant), triplicate
[21] = P. aeruginosa 5018 (multidrug-resistant), triplicate
[22] = P. aeruginosa 671973 (multidrug-resistant), triplicate
[23] = P. aeruginosa ATCC 27853, 2 × 10^5 CFU/mL, A600, triplicate
[24] = P. aeruginosa 27853, 5 × 10^5 CFU/mL, 0.2% glucose

Substance	MIC [1, 5]	MIC [1, 6]	MIC [1, 7]	MIC [1, 8]	MIC [1, 9]	MIC [1, 10]	MIC [1, 11]	MIC [1, 12]	MIC [1, 13]	MIC [1, 14]	MIC [1, 15]	MIC [1, 16]	MIC [1, 17]	MIC [1, 18]	MIC [1, 19]	MIC [1, 20]	MIC [1, 21]	MIC [1, 22]	MIC [1, 23]	survival rate of HaCaT cells [2]	also measured
GILGKLWEGVKSIF-NH2 [Hp1404]	12.5 µM	12.5 µM	12.5 µM	6.25 µM	25 µM	12.5 µM	6.25 µM	12.5 µM	12.5 µM	6.25 µM	6.25 µM	6.25 µM	6.25 µM	25 µM	12.5 µM	6.25 µM	12.5 µM	3.13 µM	12.5 µM	30%	MIC ([3]; CaCl2 1.25 mM): >25 µM; MIC ([3]; CaCl2 2.5 mM): >25 µM; MIC ([3]; CaCl2 5 mM): >25 µM; MIC ([3]; MgCl2 0.5 mM): 25 µM; MIC ([3]; MgCl2 1 mM): 25 µM; MIC ([3]; MgCl2 2 mM): >25 µM; MIC ([3]; NaCl 50 mM): 25 µM; MIC ([3]; NaCl 100 mM): >25 µM; MIC ([3]; NaCl 150 mM): >25 µM; MBIC ([4]; P. aeruginosa 434): 25 µM; MBIC ([4]; P. aeruginosa 559): 50 µM; MBIC ([4]; P. aeruginosa 778): 25 µM; MBIC ([4]; P. aeruginosa 1034): 25 µM; MBIC ([4]; P. aeruginosa 1162): 25 µM; MBIC ([4]; P. aeruginosa 3399): 12.5 µM; MBIC ([4]; P. aeruginosa 3543): 6.25 µM; MBIC ([4]; P. aeruginosa 4007): 25 µM; MBIC [4, 24]: 25 µM
ILKKLLKKVKKI-NH2 [Hp1404-T1e]	6.25 µM	3.13 µM	3.13 µM	3.13 µM	6.25 µM	1.56 µM	1.56 µM	1.56 µM	6.25 µM	0.78 µM	12.5 µM	1.56 µM	3.13 µM	3.13 µM	3.13 µM	1.56 µM	1.56 µM	1.56 µM	1.56 µM	100%	MIC ([3]; CaCl2 1.25 mM): 6.25 µM; MIC ([3]; CaCl2 2.5 mM): 12.5 µM; MIC ([3]; CaCl2 5 mM): >25 µM; MIC ([3]; MgCl2 0.5 mM): 3.13 µM; MIC ([3]; MgCl2 1 mM): 3.13 µM; MIC ([3]; MgCl2 2 mM): 12.5 µM; MIC ([3]; NaCl 50 mM): 6.25 µM; MIC ([3]; NaCl 100 mM): 6.25 µM; MIC ([3]; NaCl 150 mM): 12.5 µM; MBIC ([4]; P. aeruginosa 434): 12.5 µM; MBIC ([4]; P. aeruginosa 559): 12.5 µM; MBIC ([4]; P. aeruginosa 778): 6.25 µM; MBIC ([4]; P. aeruginosa 1034): 6.25 µM; MBIC ([4]; P. aeruginosa 1162): 6.25 µM; MBIC ([4]; P. aeruginosa 3399): 12.5 µM; MBIC ([4]; P. aeruginosa 3543): 50 µM; MBIC ([4]; P. aeruginosa 4007): 12.5 µM; MBIC [4, 24]: 12.5 µM
